Experimental data as given in ChEMBL document CHEMBL3877300, “Design, synthesis, docking studies and biological evaluation of novel dihydro-1,3,5-triazines as human DHFR inhibitors” (Eur J Med Chem, 2017).

Columns and labels:
Mus musculus [1] = experiment: Toxicity in BALB/c nude mouse xenografted with human A549 cells assessed as body weight at 2 mg/kg, ip administered 14 times in 22 days measured on day 1 post dose (reference value: 24.73 +/- 1.33 g); type: organism-based; details: in vivo, 528 h
[2] = Antitumor activity against human A549 cells xenografted in BALB/c nude mouse assessed as tumor growth inhibition at 2 mg/kg, ip administered 14 times in 22 days measured on day 22 post dose relative to control; type: functional; details: 528 h, read-out: TGI
Mus musculus [3] = experiment: Toxicity in BALB/c nude mouse xenografted with human A549 cells assessed as body weight at 2 mg/kg, ip administered 14 times in 22 days measured on day 8 post dose (reference value: 25.19 +/- 1.38 g); type: organism-based; details: in vivo, 528 h
Mus musculus [4] = experiment: Toxicity in BALB/c nude mouse xenografted with human A549 cells assessed as body weight at 2 mg/kg, ip administered 14 times in 22 days measured on day 15 post dose (reference value: 25.41 +/- 1.04 g); type: organism-based; details: in vivo, 528 h
[5] = Antitumor activity against human A549 cells xenografted in BALB/c nude mouse assessed as tumor volume at 2 mg/kg, ip administered 14 times in 22 days measured on day 11 post dose (reference value: 373.93 +/- 59.98 mm3); type: functional
Mus musculus [6] = experiment: Toxicity in BALB/c nude mouse xenografted with human A549 cells assessed as body weight at 2 mg/kg, ip administered 14 times in 22 days measured on day 11 post dose (reference value: 24.99 +/- 0.97 g); type: organism-based; details: in vivo, 528 h
[7] = Antiproliferative activity against human HL60 cells after 72 hrs by MTT assay; type: functional, cell-based; details: HL-60, 72 h
[8] = Antitumor activity against human A549 cells xenografted in BALB/c nude mouse assessed as tumor volume at 2 mg/kg, ip administered 14 times in 22 days measured on day 22 post dose (reference value: 912.28 +/- 140.04 mm3); type: functional
[9] = Antitumor activity against human A549 cells xenografted in BALB/c nude mouse assessed as tumor volume at 2 mg/kg, ip administered 14 times in 22 days measured on day 1 post dose (reference value: 117.71 +/- 7.29 mm3); type: functional
[10] = Antitumor activity against human A549 cells xenografted in BALB/c nude mouse assessed as tumor growth inhibition at 2 mg/kg, ip administered 14 times in 22 days measured on day 18 post dose relative to control; type: functional; details: read-out: TGI
cells [11] = details: Homo sapiens, A549, 72 h
Description: Antiproliferative activity against human A549 cells after 72 hrs by MTT assay

[12] = Antiproliferative activity against human HepG2 cells after 72 hrs by MTT assay; type: functional, cell-based; details: HepG2, 72 h
cells [13] = details: Homo sapiens, HCT-116, 72 h
Description: Antiproliferative activity against human HCT116 cells after 72 hrs by MTT assay

[14] = Antiproliferative activity against human MDA-MB-231 cells after 72 hrs by MTT assay; type: functional, cell-based; details: MDA-MB-231, 72 h, read-out: IC50
Mus musculus [15] = experiment: Toxicity in BALB/c nude mouse xenografted with human A549 cells assessed as body weight at 2 mg/kg, ip administered 14 times in 22 days measured on day 22 post dose (reference value: 25.59 +/- 1.16 g); type: organism-based; details: in vivo, 528 h
[16] = Antitumor activity against human A549 cells xenografted in BALB/c nude mouse assessed as tumor growth inhibition at 2 mg/kg, ip administered 14 times in 22 days measured on day 8 post dose relative to control; type: functional; details: read-out: TGI
Mus musculus [17] = experiment: Toxicity in BALB/c nude mouse xenografted with human A549 cells assessed as body weight at 2 mg/kg, ip administered 14 times in 22 days measured on day 4 post dose (reference value: 24.84 +/- 1.22 g); type: organism-based; details: in vivo, 528 h
[18] = Antitumor activity against human A549 cells xenografted in BALB/c nude mouse assessed as tumor growth inhibition at 2 mg/kg, ip administered 14 times in 22 days measured on day 4 post dose relative to control; type: functional; details: read-out: TGI
[19] = Antitumor activity against human A549 cells xenografted in BALB/c nude mouse assessed as tumor growth inhibition at 2 mg/kg, ip administered 14 times in 22 days measured on day 15 post dose relative to control; type: functional; details: read-out: TGI
[20] = Antitumor activity against human A549 cells xenografted in BALB/c nude mouse assessed as tumor volume at 2 mg/kg, ip administered 14 times in 22 days measured on day 8 post dose (reference value: 288.71 +/- 54.75 mm3); type: functional
[21] = Antitumor activity against human A549 cells xenografted in BALB/c nude mouse assessed as tumor growth inhibition at 2 mg/kg, ip administered 14 times in 22 days measured on day 11 post dose relative to control; type: functional; details: read-out: TGI
[22] = Antitumor activity against human A549 cells xenografted in BALB/c nude mouse assessed as tumor volume at 2 mg/kg, ip administered 14 times in 22 days measured on day 15 post dose (reference value: 502.27 +/- 69.26 mm3); type: functional
[23] = Antitumor activity against human A549 cells xenografted in BALB/c nude mouse assessed as tumor volume at 2 mg/kg, ip administered 14 times in 22 days measured on day 4 post dose (reference value: 207.73 +/- 56.48 mm3); type: functional
Mus musculus [24] = experiment: Toxicity in BALB/c nude mouse xenografted with human A549 cells assessed as body weight at 2 mg/kg, ip administered 14 times in 22 days measured on day 18 post dose (reference value: 25.66 +/- 1.16 g); type: organism-based; details: in vivo, 528 h
[25] = Antitumor activity against human A549 cells xenografted in BALB/c nude mouse assessed as tumor growth inhibition at 50 mg/kg, ip administered 14 times in 22 days measured on day 4 post dose relative to control; type: functional; details: read-out: TGI
[26] = Antitumor activity against human A549 cells xenografted in BALB/c nude mouse assessed as tumor volume at 50 mg/kg, ip administered 14 times in 22 days measured on day 11 post dose (reference value: 373.93 +/- 59.98 mm3); type: functional
[27] = Antitumor activity against human A549 cells xenografted in BALB/c nude mouse assessed as tumor growth inhibition at 50 mg/kg, ip administered 14 times in 22 days measured on day 11 post dose relative to control; type: functional; details: read-out: TGI
Mus musculus [28] = experiment: Toxicity in BALB/c nude mouse xenografted with human A549 cells assessed as body weight at 50 mg/kg, ip administered 14 times in 22 days measured on day 18 post dose (reference value: 25.66 +/- 1.16 g); type: organism-based; details: in vivo, 528 h
[29] = Antitumor activity against human A549 cells xenografted in BALB/c nude mouse assessed as tumor growth inhibition at 50 mg/kg, ip administered 14 times in 22 days measured on day 22 post dose relative to control; type: functional; details: 528 h, read-out: TGI
[30] = Antitumor activity against human A549 cells xenografted in BALB/c nude mouse assessed as tumor growth inhibition at 50 mg/kg, ip administered 14 times in 22 days measured on day 18 post dose relative to control; type: functional; details: read-out: TGI
[31] = Antitumor activity against human A549 cells xenografted in BALB/c nude mouse assessed as tumor volume at 50 mg/kg, ip administered 14 times in 22 days measured on day 18 post dose (reference value: 692.11 +/- 102.17 mm3); type: functional
[32] = Antitumor activity against human A549 cells xenografted in BALB/c nude mouse assessed as tumor volume at 50 mg/kg, ip administered 14 times in 22 days measured on day 8 post dose (reference value: 288.71 +/- 54.75 mm3); type: functional
[33] = Antitumor activity against human A549 cells xenografted in BALB/c nude mouse assessed as tumor volume at 50 mg/kg, ip administered 14 times in 22 days measured on day 15 post dose (reference value: 502.27 +/- 69.26 mm3); type: functional
[34] = Antitumor activity against human A549 cells xenografted in BALB/c nude mouse assessed as tumor growth inhibition at 50 mg/kg, ip administered 14 times in 22 days measured on day 15 post dose relative to control; type: functional; details: read-out: TGI
Mus musculus [35] = experiment: Toxicity in BALB/c nude mouse xenografted with human A549 cells assessed as body weight at 50 mg/kg, ip administered 14 times in 22 days measured on day 1 post dose (reference value: 24.73 +/- 1.33 g); type: organism-based; details: in vivo, 528 h
[36] = Antitumor activity against human A549 cells xenografted in BALB/c nude mouse assessed as tumor volume at 50 mg/kg, ip administered 14 times in 22 days measured on day 1 post dose (reference value: 117.71 +/- 7.29 mm3); type: functional
Mus musculus [37] = experiment: Toxicity in BALB/c nude mouse xenografted with human A549 cells assessed as body weight at 50 mg/kg, ip administered 14 times in 22 days measured on day 8 post dose (reference value: 25.19 +/- 1.38 g); type: organism-based; details: in vivo, 528 h
Dihydrofolate reductase = target: T1, Dihydrofolate reductase (Homo sapiens, UniProt P00374); experiment: Inhibition of recombinant human DHFR using DHF as substrate measured every 5 sec over 6 mins in presence of NADPH by UV-Visible spectrophotometric method relative to control
T1 sequence (P00374 whole entry): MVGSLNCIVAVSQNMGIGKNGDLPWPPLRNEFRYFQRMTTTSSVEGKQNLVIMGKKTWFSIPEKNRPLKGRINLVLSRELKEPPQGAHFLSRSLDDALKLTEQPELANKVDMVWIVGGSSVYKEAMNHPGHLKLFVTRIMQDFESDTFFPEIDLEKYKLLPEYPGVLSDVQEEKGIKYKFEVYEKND

Mus musculus [38] = experiment: Toxicity in BALB/c nude mouse xenografted with human A549 cells assessed as body weight at 50 mg/kg, ip administered 14 times in 22 days measured on day 11 post dose (reference value: 24.99 +/- 0.97 g); type: organism-based; details: in vivo, 528 h
Mus musculus [39] = experiment: Toxicity in BALB/c nude mouse xenografted with human A549 cells assessed as body weight at 50 mg/kg, ip administered 14 times in 22 days measured on day 22 post dose (reference value: 25.59 +/- 1.16 g); type: organism-based; details: in vivo, 528 h
[40] = Antitumor activity against human A549 cells xenografted in BALB/c nude mouse assessed as tumor volume at 50 mg/kg, ip administered 14 times in 22 days measured on day 4 post dose (reference value: 207.73 +/- 56.48 mm3); type: functional
Mus musculus [41] = experiment: Toxicity in BALB/c nude mouse xenografted with human A549 cells assessed as body weight at 50 mg/kg, ip administered 14 times in 22 days measured on day 4 post dose (reference value: 24.84 +/- 1.22 g); type: organism-based; details: in vivo, 528 h
[42] = Antitumor activity against human A549 cells xenografted in BALB/c nude mouse assessed as tumor volume at 50 mg/kg, ip administered 14 times in 22 days measured on day 22 post dose (reference value: 912.28 +/- 140.04 mm3); type: functional
Mus musculus [43] = experiment: Toxicity in BALB/c nude mouse xenografted with human A549 cells assessed as body weight at 50 mg/kg, ip administered 14 times in 22 days measured on day 15 post dose (reference value: 25.41 +/- 1.04 g); type: organism-based; details: in vivo, 528 h
[44] = Antitumor activity against human A549 cells xenografted in BALB/c nude mouse assessed as tumor growth inhibition at 50 mg/kg, ip administered 14 times in 22 days measured on day 8 post dose relative to control; type: functional; details: read-out: TGI

## CN(Cc1cnc2nc(N)nc(N)c2n1)c1ccc(C(=O)N[C@@H](CCC(=O)O)C(=O)O)cc1 [METHOTREXATE]
Mus musculus [1]
  Activity: 25.28 g
[2]
  inhibition in vivo at 2 mg/kg: 50.8%
Mus musculus [3]
  Activity: 24.88 g
Mus musculus [4]
  Activity: 21.85 g
[5]
  Activity: 223.6 mm3
Mus musculus [6]
  Activity: 23.98 g
[7]
  IC50: 1090 nM
[8]
  Activity: 440.75 mm3
[9]
  Activity: 115.14 mm3
[10]
  inhibition in vivo at 2 mg/kg: 50.6%
Cells [11]
  IC50: 250 nM
[12]
  IC50: 410 nM
Cells [13]
  IC50: 750 nM
[14]
  IC50: 9490 nM
Mus musculus [15]
  Activity: 21.4 g
[16]
  inhibition in vivo at 2 mg/kg: 32.7%
Mus musculus [17]
  Activity: 25.47 g
[18]
  inhibition in vivo at 2 mg/kg: 24.6%
[19]
  inhibition in vivo at 2 mg/kg: 45%
[20]
  Activity: 189.83 mm3
[21]
  inhibition in vivo at 2 mg/kg: 29.2%
[22]
  Activity: 271.71 mm3
[23]
  Activity: 153.09 mm3
Mus musculus [24]
  Activity: 21.62 g

## Br.NC1=NC2(CCOCC2)N(OCCCOc2ccc(Cl)cc2Cl)C(N)=N1
[25]
  inhibition in vivo at 50 mg/kg: 17.6%
[26]
  Activity: 312.21 mm3
[7]
  IC50: 330 nM
[27]
  inhibition in vivo at 50 mg/kg: 16.3%
Mus musculus [28]
  Activity: 23.65 g
[29]
  inhibition in vivo at 50 mg/kg: 36.8%
[30]
  inhibition in vivo at 50 mg/kg: 32.8%
[31]
  Activity: 468.15 mm3
Cells [11]
  IC50: 70 nM
Cells [13]
  IC50: 880 nM
[32]
  Activity: 249.09 mm3
[33]
  Activity: 378.49 mm3
[34]
  inhibition in vivo at 50 mg/kg: 24.7%
Mus musculus [35]
  Activity: 23.65 g
[36]
  Activity: 117.63 mm3
Mus musculus [37]
  Activity: 23.17 g
Dihydrofolate reductase
  IC50: 7.46 nM
Mus musculus [38]
  Activity: 22.97 g
Mus musculus [39]
  Activity: 23.47 g
[40]
  Activity: 170.3 mm3
Mus musculus [41]
  Activity: 23.53 g
[42]
  Activity: 574.09 mm3
Mus musculus [43]
  Activity: 23.63 g
[44]
  inhibition in vivo at 50 mg/kg: 14.5%
